The text below walks through data of ChEMBL document CHEMBL1152554, “Synthesis and pharmacological evaluation of 6-naltrexamine analogs for alcohol cessation” (Bioorg Med Chem, 2009).

Calls of active or inactive are those of the source. Where only a bound is given, the exact number is not on record here.

In data set [1] the target is T1, Nociceptin receptor (Homo sapiens, UniProt P41146). Kind of data set: Activity at NOP expressed in HEK293 cells assessed as stimulation of [35S]GTPgammaS binding relative to basal level. The data set is classed as functional, cell-based. A general note: Binding of GTPγS marks nucleotide exchange on a G protein.
In data set [2] the target is T1, Nociceptin receptor. Kind of data set: biochemical.
Data set [3] addresses T1, Nociceptin receptor. Kind of data set: biochemical. The source holds these as a separate data set.
Another data set relates to Liver microsomes. Particulars: human.
In a further data set the test system is Rattus norvegicus. Kind of data set: Inhibition of saccharin intake in sc dosed Wistar rat by saccharin-self administration test. The data set is classed as functional, organism-based.
The conditions of data set [4]: mouse, microsomes.
Data set [5] in a line: Ratio of drug level in brain to plasma in Wistar rat at 400 ug/kg, po after […]. The data set is classed as ADME, organism-based. The settings on record: 0.4 mg/kg, read-out: BPR.
Another data set in a line: in vitro. Particulars: mouse, liver microsomes. (Liver microsomes are a subcellular fraction often used to study metabolism.)
The target in data set [6] is T1, Nociceptin receptor. Description: biochemical. The source holds these as a separate data set.

T1 sequence (P41146 whole entry): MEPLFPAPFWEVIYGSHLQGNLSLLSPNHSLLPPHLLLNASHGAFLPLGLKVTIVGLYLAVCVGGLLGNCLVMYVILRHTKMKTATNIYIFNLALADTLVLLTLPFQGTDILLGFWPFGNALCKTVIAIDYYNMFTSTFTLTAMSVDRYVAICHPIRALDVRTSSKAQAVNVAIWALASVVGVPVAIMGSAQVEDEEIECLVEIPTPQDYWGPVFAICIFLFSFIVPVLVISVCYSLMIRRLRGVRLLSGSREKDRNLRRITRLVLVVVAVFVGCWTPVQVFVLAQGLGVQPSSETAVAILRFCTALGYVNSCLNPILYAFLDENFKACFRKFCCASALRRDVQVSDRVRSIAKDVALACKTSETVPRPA

As usually defined, the Emax is the maximal effect, on the per cent scale that the assay sets. For `Oc1ccc2c3c1O[C@H]1c4[nH]c5ccccc5c4C[C@@]4(O)[C@@H](C2)N(CC2CC2)CC[C@]314`, at Nociceptin receptor [1], the Emax is 109%.
What is called Ki is a measure of affinity in units of concentration, obtained from inhibition or displacement. Lower therefore signals a stronger hold on the target. Usually EC50 stands for the midpoint of the concentration-response curve. On Nociceptin receptor [2], `O=C(N[C@@H]1CC[C@@]2(O)[C@H]3Cc4ccc(O)c5c4[C@@]2(CCN3CC2CC2)[C@H]1O5)c1ccc(Br)cc1.O=C(O)C(=O)O` returned a Ki of more than 10 µM. Further, the EC50 at Nociceptin receptor [3] is more than 10 µM. Besides, the Stability entry with Liver microsomes is recorded as “Stable”. Also, the inhibition entry with Rattus norvegicus is “Active”.
For `O=C(N[C@@H]1CC[C@@]2(O)[C@H]3Cc4ccc(O)c5c4[C@@]2(CCN3CC2CC2)[C@H]1O5)c1ccc(C(F)(F)F)cc1.O=C(O)C(=O)O`, the Stability entry (in data set [4]; in the data set with Liver microsomes) was “Stable” each time.
In the case of `Cc1ccc(C(=O)N[C@@H]2CC[C@@]3(O)[C@H]4Cc5ccc(O)c6c5[C@@]3(CCN4CC3CC3)[C@H]2O6)cc1.O=C(O)C(=O)O`, the Stability result (in data set [4]; in the data set on Liver microsomes) was “Stable” in each case.
Turning to `O=C(O)C(=O)O.O=[14C](N[C@@H]1CC[C@@]2(O)[C@H]3Cc4ccc(O)c5c4[C@@]2(CCN3CC2CC2)[C@H]1O5)c1ccc(Br)cc1`, the Kp at […] in [5] came to 2.3.
Usually half-life stands for the time needed for the level to fall by half in the phase considered. Read a high half-life as slow loss. `C=C1CC[C@@]2(O)[C@H]3Cc4ccc(O)c5c4[C@@]2(CCN3CC2CC2)[C@H]1O5` registered a half-life in “in vitro” of 20 min.
`O=C(N[C@@H]1CC[C@@]2(O)[C@H]3Cc4ccc(O)c5c4[C@@]2(CCN3CC2CC2)[C@H]1O5)c1ccc(Cl)cc1` returned an EC50 on Nociceptin receptor [3] of more than 10 µM.
`CC(C)(C)c1ccc(C(=O)N[C@@H]2CC[C@@]3(O)[C@H]4Cc5ccc(O)c6c5[C@@]3(CCN4CC3CC3)[C@H]2O6)cc1.O=C(O)C(=O)O`: the Stability entry in data set [4] is “Stable”.
As for `O=C(N[C@@H]1CC[C@@]2(O)[C@H]3Cc4ccc(O)c5c4[C@@]2(CCN3CC2CC2)[C@H]1O5)c1ccc(Cl)c(Cl)c1.O=C(O)C(=O)O`, the Stability result in [4] is “Stable”. For the same compound, the EC50 at Nociceptin receptor [6] was 0.0001 µM; at Nociceptin receptor [3], more than 10 µM.
